According to paper PMC4052314, “New Cyclic Cystine Bridged Peptides from the Sponge Suberites waedoensis” (Marine Drugs, 2014):
Positions of bridges follow the written chain, without caps; N, C: chain ends. Residues, ends and D or L forms follow the SMILES beside them.

What was measured:
K562 cell-line [1] = assay: Cytotoxicity assay, K562 cell line; format: cell-based; details: literature protocols [21],[22]
Description: (§1) The cytotoxicity assays were performed in accord with literature protocols. The Na^+/K^+-ATPase inhibition assay was performed according to the previously described method.

A549 cell-line [2] = assay: Cytotoxicity assay, A549 cell line; format: cell-based; details: literature protocols [21],[22]
Description: as §1

A549 cell-line [3] = details: cited from earlier work
From the text: (§2) In our search for bioactive metabolites from sponges found in Korean waters, we recently reported the structural determination of gombamide A, a cyclic thiohexapeptide from Clathria gombawuiensis. […] In our continuing search for bioactive metabolites in sponges, we report here the isolation and structural determinations of chujamides A (1) and B (2), new cyclic cystine bridged peptides from the sponge Suberites waedoensis (Figure 1). These proline- ...

K562 cell-line [4] = details: cited from earlier work
From the text: as §2

Na+/K+-ATPase [5] = details: cited from earlier work
From the text: as §2

Na+/K+-ATPase [6] = assay: Na+/K+-ATPase inhibition assay; format: biochemical; details: previously described method [23]
Description: as §1

Compound	LC50, cytotoxicity toward K562 (K562 cell-line [1]) [µM]	LC50, cytotoxicity toward A549 (A549 cell-line [2]) [µM]	cytotoxicity against A549 (in words) (A549 cell-line [3])	cytotoxicity against K562 (in words) (K562 cell-line [4])	inhibitory activity against Na+/K+-ATPase (in words) (Na+/K+-ATPase [5])	IC50 (Na+/K+-ATPase [6]) [µM]
COc1cccc2c1C(=O)c1c(O)c3c(c(O)c1C2=O)C[C@@](O)(C(=O)CO)C[C@@H]3O[C@H]1C[C@H](N)[C@H](O)[C@H](C)O1 [doxorubicin]	1.5	1.3				
CC[C@H](C)[C@H](NC(=O)CN)C(=O)N[C@H]1CSSC[C@@H](C(=O)O)NC(=O)[C@H]([C@@H](C)CC)NC(=O)[C@@H]2CCCN2C(=O)[C@H](CC(C)C)NC(=O)[C@H](Cc2ccccc2)NC(=O)[C@@H]2CCCN2C(=O)[C@@H]2CCCN2C(=O)[C@H](Cc2ccc(O)cc2)NC(=O)[C@@H]2CCCN2C1=O [Compound 1, chujamide A] (H-GICPYPPFLPIC-OH; disulfide 3-12)	37.0	10.1				
gombamide A			exhibited cytotoxicity	exhibited cytotoxicity	inhibitory activity	
CC[C@H](C)[C@H](N)C(=O)N[C@H]1CSSC[C@@H](C(=O)O)NC(=O)[C@H]([C@@H](C)CC)NC(=O)[C@@H]2CCCN2C(=O)[C@H](CC(C)C)NC(=O)[C@H](Cc2ccccc2)NC(=O)[C@@H]2CCCN2C(=O)[C@@H]2CCCN2C(=O)[C@H](Cc2ccc(O)cc2)NC(=O)[C@@H]2CCCN2C1=O [Compound 2, chujamide B] (H-ICPYPPFLPIC-OH; disulfide 2-11)	55.6	26.4				17.2
